Data from a flash point compilation (Sun et al. 2020).
Counter-ions that a name gives are not always drawn.

| SMILES | flash point [°C] |
| --- | --- |
| CC1CCCC1 [methylcyclopentane] | -24.00 |
| CCCCCCCCCCCCC [tridecane] | 79.00 |

Remark: another data set of the same source

| SMILES | flash point [°C] |
| --- | --- |
| C1=CCCC=CCC1 [1,5-cyclooctadiene] | 35 |
| C#CCCCCCC#C [1,8-nonadiyne] | 42 |
| C#CCCCCCCCC [1-decyne] | 48 |
| C=CCCCCCCCCCC [1-dodecene] | 73 |
| CC1=CCCCC1 [1-methylcyclohexene] | -1 |
| CC1=CCCC1 [1-methylcyclopentene] | -19 |
| CC(C)=CC=C(C)C [2,5-dimethyl-2,4-hexadiene] | 24 |
| CC#CCCC [2-hexyne] | -10 |
| COCCOC(C)=O [2-methoxyethylacetate] | 43 |
| CC(C)(C)S [2-methyl-2-propanethiol] | -24 |
| CC(CCO)CC(C)(C)C (centres undefined) [3,5,5-trimethyl-1-hexanol] | 80 |
| ClC1CCCCC1 [chlorocyclohexane] | 28 |
| C1CCCCCCCCC1 [cyclodecane] | 59 |
| NCCNCCN [diethylenetriamine] | 90 |
| CC1CCCC1 [methylcyclopentane] | -23 |
| C=C1CCCC1 [methylenecyclopentane] | -18 |
| CCCCCCCCCCCCC [tridecane] | 94 |

Remark: another data set of the same source

| SMILES | flash point [°C] |
| --- | --- |
| CC(Cl)(Cl)[N+](=O)[O-] [1,1-Dichloro-1-nitroethane] | 76.00 |
| Clc1cc(Cl)c(Cl)cc1Cl [1,2,4,5-Tetrachlorobenzene] | 155.00 |
| CC(Cl)CCl (centres undefined) [1,2-Dichloropropane] | 16.00 |
| CC(O)CO (centres undefined) [1,2-Propanediol] | 99.00 |
| CC(Cl)=CCCl [1,3-Dichloro-2-butene] | 27.00 |
| C=CCC=CC [1,4-Hexadiene] | -21.00 |
| C=CCC [1-Butene] | -80.00 |
| CCC(Cl)[N+](=O)[O-] (centres undefined) [1-Chloro-1-nitropropane] | 62.00 |
| O=[N+]([O-])c1ccc(Cl)c([N+](=O)[O-])c1 [1-Chloro-2,4-dinitrobenzene] | 194.00 |
| Nc1cccc2ccccc12 [1-Naphthylamine] | 157.00 |
| CCC[N+](=O)[O-] [1-Nitropropane] | 49.00 |
| Oc1ccc(Cl)cc1Cl [2,4-Dichlorophenol] | 114.00 |
| CC=CC=CC=O [2,4-Hexadienal] | 68.00 |
| CCCCC(CC)CO (centres undefined) [2-Ethyl hexanol] | 84.00 |
| OCCS [2-Mercaptoethanol] | 74.00 |
| Cc1ccco1 [2-Methyl furan] | -30.00 |
| Cc1ccccn1 [2-Picoline] | 39.00 |
| C1=COCCC1 [3,4-Dihydro-2H-pyran] | -18.00 |
| Cc1ccncc1 [4-Picoline] | 57.00 |
| CC(=O)Nc1ccccc1 [Acetanilide] | 174.00 |
| CC(C)(O)C#N [Acetone cyanohydrin] | 74.00 |
| C=CC(=O)O [Acrylic acid] | 52.00 |
| N#Cc1ccccc1 [Benzonitrile] | 85.00 |
| O=C(Cl)c1ccccc1 [Benzoyl chloride] | 72.00 |
| NCc1ccccc1 [Benzylamine] | 63.00 |

| SMILES | flash point [°C] |
| --- | --- |
| c1ccc(-c2ccccc2)cc1 [Biphenyl] | 113.00 |
| Brc1ccccc1 [Bromobenzene] | 51.00 |
| CCCCS [Butyl mercaptan] | 2.00 |
| C=C(C)C(=O)OCCCC [Butyl methacrylate] | 52.00 |
| CCCCCC(=O)O [Caproic acid] | 102.00 |
| S=C=S [Carbon disulphide] | -30.00 |
| O=CCCl [Chloroacetaldehyde] | 88.00 |
| Clc1cccc2ccccc12 [Chloronaphthalene] | 132.00 |
| C/C=C/C=O [Crotonaldehyde] | 13.00 |
| CC(C)c1ccccc1 [Cumene] | 44.00 |
| O=C1CCCCC1 [Cyclohexanone] | 44.00 |
| O=C1CCCC1 [Cyclopentanone] | 26.00 |
| CC(=O)CC(C)(C)O [Diacetone alcohol] | 64.00 |
| CCCCOC(=O)C(=O)OCCCC [Dibutyl oxalate] | 104.00 |
| CCCCOC(=O)c1ccccc1C(=O)OCCCC [Dibutyl phthalate] | 157.00 |
| CCCCOC(=O)C(O)C(O)C(=O)OCCCC (centres undefined) [Dibutyl tartrate] | 91.00 |
| O=C(Cl)C(Cl)Cl [Dichloroacetyl chloride] | 66.00 |
| C1CCC(NC2CCCCC2)CC1 [Dicyclohexylamine] | 99.00 |
| NCCNCCN [Diethylenetriamine] | 102.00 |
| CC(C)CC(O)CC(C)C [Diisobutyl carbinol] | 74.00 |
| COC(C)(C)OC [Dimethoxypropane] | -7.00 |
| COC(=O)OC [Dimethyl carbonate] | 19.00 |
| COC(=O)c1ccccc1C(=O)OC [Dimethyl phthalate] | 146.00 |
| COC(C)COC(C)CO (centres undefined) [Dipropylene glycol methyl ether] | 85.00 |
| ClCC1CO1 (centres undefined) [Epichlorohydrin] | 41.00 |
